# Measurements from US11564875B2, “Cosmetic composition for skin regeneration” (Amorepacific Corporation, priority 2018, dated 2023).
# Experiments:
# [1] = Cytotoxicity evaluation using a serum-free media; format: cell-based
# Protocol: A cytotoxicity evaluation of the compound represented by Chemical Formula 1-1 was twice performed by using a serum-free media, and the results are shown in FIGS. 5 and 6. Referring to FIGS. 5 and 6, a significant cytotoxicity concentration of the compound represented by Chemical Formula 1-1 was 20 μM (cell viability<80%).
# [2] = tested on: AQP3, PPAR-α, PPAR-β, K5, and K14 gene level in human keratinocyte cell line (HaCaT cells); test: Skin regeneration effect after ultraviolet (UV) irradiation: gene level changes in UVA-irradiated HaCaT cells; format: cell-based; details: for skin regeneration effect: HaCaT cells
# Text: A human keratinocyte cell line (HaCaT cells) was irradiated with ultraviolet (UVA) (2 J/cm^2, 3 J/cm^2) and then, treated with a compound represented by Chemical Formula 1-1 (camellenodiol), which was obtained by extracting 10 kg of dry camellia powder with water-soluble ethanol and subsequently, performing filtration, concentration under a reduced pressure, and purification by using HP-20 and silica chromatography, to exam AQP3, PPAR-α, PPAR-β, K5, and K14 gene level changes, and the results are shown in FIGS. 1 to 4.
structure (smiles),measurement,setting,value
"CC1(C)CC[C@]2(O)C(=O)C[C@]3(C)C(=CC[C@@H]4[C@@]5(C)CC[C@H](O)C(C)(C)[C@@H]5CC[C@]43C)[C@@H]2C1 [Chemical Formula 1-1, camellenodiol]",cell viability,[1]; at 20 μM,< 80%
same,significant cytotoxicity concentration,"[1]; performed twice, criterion cell viability<80%, FIGS. 5 and 6",20 µM
same,"levels of the genes (AQP3, PPAR-α, PPAR-β, K5, K14)","[2]; HaCaT cells after UVA irradiation (2 J/cm^2, 3 J/cm^2), compound at 5 μM to 10 μM, specifically 7.5 μM, FIGS. 1 to 4",significantly increased
same,skin regeneration effect,"[2]; UVA 2 J/cm^2, compound at 7.5 μM to 10 μM",excellent skin regeneration effect
same,skin regeneration effect,"[2]; UVA 3 J/cm^2, compound at 5 μM to 7.5 μM",excellent skin regeneration effect
